Assay results: publication PMC11243066, “Synthesis and Biological Evaluation of Novel Biased Mu-Opioid Receptor Agonists” (Molecules, 2024)
Like-named read-outs stand apart in the source and are kept apart here.

What was measured:
mice [1] = assay: Hot-water tail withdrawal test; format: in vivo, CD-1 mice; conditions: 20 mg/kg i.v. tail vein, 15 min post administration
Protocol: (§1) Food and water were provided ad libitum.
The hot-water tail withdrawal test was performed as described previously. In brief, the hot-water tail withdrawal test was conducted using a water bath maintained at 55 ± 0.5 °C. The distal 3 cm section of the mouse’s tail was immersed perpendicularly into the hot water. The duration for which the tail remained in the water was recorded as the initial tail withdrawal latency (TWL0). […] Following the administration of a single dose of the test compound (20 mg/kg, i.v.) or vehicle, the subsequent tail withdrawal latency (TWL) was measured at various time intervals (15, 30, 45, 60, and 90 min). To prevent potential tissue damage, a maximum cutoff latency of 16 s was enforced. Antinociception was quantified using the percentage of maximal possible effect (%MPE), calculated as %MPE = 100 × (TWL − TWL0)/(16 − TWL0).

human μ-opioid receptor = molecular target: T1, human μ-opioid receptor (Homo sapiens, UniProt P35372); assay: cell-based; format: cell-based; conditions: CHO/μOR cells; for EC50: cAMP inhibition, "-" = no measurable activity, read-out: EC50 (nM) (95% CI), µOR-Gi/o activation assay; for EC50 / Emax: n = 3; for Emax: at the concentration printed in parentheses in the cell, read-out: Max Effect ± SEM (%), µOR-Gi/o activation assay
T1 construct: expressed in transfected cells; host or cells: CHO (CHO/μOR cells)
T1 sequence (P35372 whole entry): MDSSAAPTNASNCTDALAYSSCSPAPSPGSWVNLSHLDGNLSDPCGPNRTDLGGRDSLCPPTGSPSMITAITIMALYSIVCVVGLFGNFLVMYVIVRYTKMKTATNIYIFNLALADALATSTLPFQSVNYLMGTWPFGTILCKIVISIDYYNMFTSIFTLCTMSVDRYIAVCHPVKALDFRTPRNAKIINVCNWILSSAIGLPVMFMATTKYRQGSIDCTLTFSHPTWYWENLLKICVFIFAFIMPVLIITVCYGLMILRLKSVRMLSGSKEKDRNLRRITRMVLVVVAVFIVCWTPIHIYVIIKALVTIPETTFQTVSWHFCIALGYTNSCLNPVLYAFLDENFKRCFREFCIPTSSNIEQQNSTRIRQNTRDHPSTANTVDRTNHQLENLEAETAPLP
Protocol: The inhibition assay was performed as described previously. In brief, tested compound dilutions (with final concentrations of 100 µM, 50 µM, 10 µM, 1 µM, 500 nM, 100 nM, 50 nM, 10 nM, 1 nM, and 100 pM) were produced in saline or DMSO in triplicate. CHO/μOR cells were suspended in the assay buffer and counted, maintaining a cell density of 2000 cells per well, with 5 µL from each well seeded into a 384-well plate. Subsequently, 5 µL of the tested compound solution per well was dispensed into the plate, which was then placed in a 25 °C incubator and incubated in the dark for 30 min. Next, 10 µL of cAMP standard working solution was added to the empty wells of the plate, followed by the addition of 5 µL of Eu-cAMP and Anti-cAMP per well. The plate was subsequently placed back in a 25 °C incubator and further incubated in the dark for 1 h.
CHO cells expressing the human μ-opioid receptor were cultivated for the assessment of compound effects. […] Cells collected during the exponential phase of growth were dissociated without enzymes to preserve receptor integrity, resuspended in assay buffer, and counted to achieve a uniform concentration. Cell density was adjusted to 2000 cells per well in a 384-well plate, promoting uniform distribution and optimal receptor presence. Post-seeding at 25 °C in darkness facilitated cell adherence and stabilization prior to compound introduction. Compounds were added in serial dilutions, with meticulous dispensing techniques ensuring dose uniformity. Following a 1 h incubation at 25 °C, TR-FRET reagents were applied to measure cAMP levels, indicative of μOR activity. The Envision system recorded these levels, quantifying compound inhibitory effects. Meticulous aseptic techniques and vigilant monitoring were imperative throughout to guarantee data precision from the assay.

[2] = molecular target: T2, human μOR β-arrestin2 pathway (Homo sapiens, UniProt P35372); assay: cell-based; format: cell-based; conditions: for Emax: read-out: Max Effect ± SEM (%), µOR β-arrestin recruitment assay; for EC50: "-" = no measurable activity, read-out: EC50 (nM) (95% CI), µOR β-arrestin recruitment assay
T2 construct: β-galactosidase enzyme fragment (PathHunter complementation tag); host or cells: U2OS (U2OS/human μOR β-arrestin cells)
T2 sequence (P35372 whole entry, the tested form may be a part): as the sequence (P35372 whole entry) above
Protocol: In this assay, optical signal values were detected employing the PathHunter® (DiscoverX, Shanghai, China) Detection Kit assay method. The agonistic activity of tested compounds on the human μOR β-arrestin2 pathway was quantified using a β-galactosidase-based enzyme fragment complementation assay. In brief, tested compound dilutions (with final concentrations of 100 μM, 50 μM, 10 μM, 1 μM, 500 nM, 100 nM, 50 nM, 10 nM, 1 nM, and 100 pM) were produced in saline or DMSO in triplicate. Next, 100 nL of the tested compound solution per well was dispensed into a 384-well cell culture plate. The U2OS/human μOR β-arrestin cells were resuspended in Opti-MEM and counted to achieve a cell density of 4000 cells per well, and 20 μL from each well was seeded into the 384-well cell culture plate. The plate was subsequently incubated at 37 °C in the dark for 120 min. Post-incubation, the cell plate was equilibrated to room temperature for 10–20 min, and 5 μL of the detection reagent were added to each well. Following a 60 min incubation at 25 °C, chemiluminescent readings were obtained using the envision system.
The cells were maintained at 37 °C with 5% CO2 in McCoy’s 5a medium with supplements and cultivated utilizing precise techniques to ensure accurate, reproducible results. Cells were gently dissociated for assays to maintain receptor integrity and resuspended in Opti-MEM® for compatibility with the PathHunter® (DiscoverX, Shanghai, China). Detection Kit. Cell density was adjusted to 4000 cells per well in a 384-well plate, to ensure that a uniform monolayer was established for the β-galactosidase assay. After seeding and incubation in the dark at 37 °C to facilitate cell attachment, the plates were equilibrated to room temperature prior to compound treatment. Serial dilutions of the compounds were assessed for pharmacological effect. A detection reagent was then added to measure β-galactosidase activity as indicative of μ-opioid receptor and β-arrestin2 interaction. Following reagent incubation, chemiluminescence was quantified, providing quantitative data on compound agonistic activity. Throughout, meticulous aseptic technique and strict adherence to protocols were imperative to ensure the integrity of the pharmacological data derived from these studies.

mice [3] = assay: Acetic acid-induced writhing test; format: in vivo, CD-1 mice; conditions: 20 mg/kg i.v. tail vein
Protocol: as §1
The acetic acid-induced writhing test was performed as described previously. In brief, after pretreatment with the test compound at a dose of 20 mg/kg via intravenous tail vein injection, 1% (v/v) glacial acetic acid was administered intraperitoneally (i.p.) at a dose of 10 mL/kg. Subsequently, the number of writhing responses over a 20 min period was recorded. The antinociception rate was calculated as the percentage of maximal possible effect (%MPE), where %MPE = 100 × (NWV − NWT)/NWV. NWV and NWT represent the average number of writhing responses of the vehicle and test groups, respectively.

mice [4] = assay: Formalin paw-licking test; format: in vivo, CD-1 mice; conditions: 20 mg/kg i.v. tail vein, Phase II
Protocol: as §1
The formalin injection assay was performed as described previously. […] After 15 min, 30 µL of a 2.7% formalin solution was administered into the right hind paw of each mouse. Then, the mice were put into the cage and their behaviors were observed. The antinociception rate was quantified as the percentage of maximal possible effect (%MPE), calculated as %MPE = 100 × (PLTV − PLTT)/PLTV; PLTV and PLTT represent the average paw-licking duration during Phase II for the vehicle and test groups, respectively.

mice [5] = assay: Respiratory depression (blood pO2, blood gas analyzer); conditions: single i.v. dose 20 mg/kg (morphine 4 mg/kg), 5-40 min
Protocol: (§2) The mice were group-housed in a controlled temperature environment and subjected to a 12 h light/dark cycle (lights on from 07:00 to 19:00). Food and water were provided ad libitum. All animal procedures were conducted in accordance with the policies and recommendations of the International Association for the Study of Pain and the National Health and Animal Welfare Committee of the Beijing Institute of Pharmacology, with the aim of minimizing the number of animals used and their suffering.

mice [6] = assay: Physical dependence (naloxone-precipitated withdrawal jumping); conditions: i.v. once daily for 5 days, PZM21 and 6a 20 mg/kg, morphine 2 mg/kg, jumps over 20 min
Protocol: as §2

[7] = U2OS/human μOR β-arrestin cells, at the concentration printed in parentheses in the cell, n = 3
[8] = U2OS/human μOR β-arrestin cells, n = 3

Structure (SMILES): CN(C)[C@H](CNC(=O)NCCc1ccccc1)Cc1cccc2ccccc12 [6b, (S)-1-(2-(dimethylamino)-3-(naphthalen-1-yl)propyl)-3-phenethyl urea]
- pain inhibition rate (%MPE), hot-water tail-withdrawal test (mice [1]): 35.89%
- EC50 (human μ-opioid receptor): 110 nM
- Emax (human μ-opioid receptor): 73.9 ± 2.38%
- Emax [2, 7]: 1.99 ± 1.77%
- EC50 [2, 8]: > 100000 nM

Structure (SMILES): COc1ccc(CCNC(=O)NC[C@H](Cc2cccc3ccccc23)N(C)C)cc1 [6e, (S)-1-(2-(dimethylamino)-3-(naphthalen-1-yl)propyl)-3-(4-methoxyphenethyl) urea]
- EC50 (human μ-opioid receptor): > 100000 nM
- Emax (human μ-opioid receptor): -1.41 ± 5.21%
- Emax [2, 7]: 2.95 ± 1.37%
- EC50 [2, 8]: > 100000 nM

Structure (SMILES): CN(C)[C@H](CNC(=O)NCc1ccc(F)cc1)Cc1cccc2ccccc12 [6c, (S)-1-(2-(dimethylamino)-3-(naphthalen-1-yl)propyl)-3-(4-fluorobenzyl) urea]
- EC50 (human μ-opioid receptor): 72.8 nM
- Emax (human μ-opioid receptor): 42.67 ± 0.27%
- Emax [2, 7]: 1.06 ± 0.93%
- EC50 [2, 8]: > 100000 nM

Structure (SMILES): C[C@@H](NC(=O)[C@@H](N)Cc1ccc(O)cc1)C(=O)NCC(=O)N(C)[C@@H](Cc1ccccc1)C(=O)NCCO [DAMGO, [D-Ala2, N-MePhe4, Gly-ol]-enkephalin, reference compound]
- Emax ([2]; U2OS): 91.2%

Structure (SMILES): CN(C)[C@H](CNC(=O)Nc1ccccc1)Cc1cccc2ccccc12 [6g, (S)-1-(2-(dimethylamino)-3-(naphthalen-1-yl)propyl)-3-phenyl urea]
- µOR agonist efficacy in Gi/o-protein signaling assay (in words) (human μ-opioid receptor): significant µOR agonist efficacy
- EC50 (human μ-opioid receptor): 59.5 nM
- Emax (human μ-opioid receptor): 24.6 ± 0.4%
- Emax [2, 7]: 1.12 ± 0.52%
- EC50 [2, 8]: > 100000 nM

Structure (SMILES): Cc1ccccc1CNC(=O)NC[C@H](Cc1cccc2ccccc12)N(C)C [6h, (S)-1-(2-(dimethylamino)-3-(naphthalen-1-yl)propyl)-3-(2-methylbenzyl) urea]
- analgesia rate (%MPE), acetic acid-induced writhing (mice [3]): exceeding 97%
- pain inhibition rate (%MPE), hot-water tail-withdrawal test (mice [1]): 41.73%
- antinociceptive efficacy (%MPE), formalin-induced paw licking, second phase (mice [4]): 78.03%
- µOR agonist efficacy in Gi/o-protein signaling assay (in words) (human μ-opioid receptor): significant µOR agonist efficacy
- EC50 (human μ-opioid receptor): 13.1 nM
- Emax (human μ-opioid receptor): 41.7 ± 0.07%
- Emax [2, 7]: 2.19 ± 1.91%
- EC50 [2, 8]: > 100000 nM

Structure (SMILES): CN1CC[C@]23c4c5ccc(O)c4O[C@H]2[C@@H](O)C=C[C@H]3[C@H]1C5 [Morphine]
- respiratory depression: partial pressure of oxygen in blood vs vehicle (mice [5]): significant reduction in the partial pressure of oxygen level
- physical dependence: jumping after naloxone-precipitated withdrawal vs vehicle (mice [6]): significantly greater frequency of jumping

Structure (SMILES): CN(C)[C@H](CNC(=O)NC1CCCCC1)Cc1cccc2ccccc12 [6l, (S)-1-cyclohexyl-3-(2-(dimethylamino)-3-(naphthalen-1-yl)propyl) urea]
- EC50 (human μ-opioid receptor): > 100000 nM
- Emax (human μ-opioid receptor): 18.1 ± 1.81%
- Emax [2, 7]: 1.96 ± 0.45%
- EC50 [2, 8]: > 100000 nM

Structure (SMILES): CN(C)[C@H](CNC(=O)NCCc1ccc(F)cc1)Cc1cccc2ccccc12 [6d, (S)-1-(2-(dimethylamino)-3-(naphthalen-1-yl)propyl)-3-(4-fluorophenethyl) urea]
- EC50 (human μ-opioid receptor): 88 nM
- Emax (human μ-opioid receptor): 87.8 ± 1.18%
- Emax [2, 7]: 7.72 ± 2.88%
- EC50 [2, 8]: > 100000 nM

Structure (SMILES): CN(C)[C@H](CNC(=O)NCC1CCCCC1)Cc1cccc2ccccc12 [6k, (S)-1-(cyclohexylmethyl)-3-(2-(dimethylamino)-3-(naphthalen-1-yl)propyl) urea]
- analgesia rate (%MPE), acetic acid-induced writhing (mice [3]): exceeding 97%
- EC50 (human μ-opioid receptor): > 100000 nM
- Emax (human μ-opioid receptor): 20.4 ± 10.6%
- Emax [2, 7]: 4.15 ± 0.02%
- EC50 [2, 8]: > 100000 nM

Structure (SMILES): Cc1ccccc1NC(=O)NC[C@H](Cc1cccc2ccccc12)N(C)C [6i, (S)-1-(2-(dimethylamino)-3-(naphthalen-1-yl)propyl)-3-(o-tolyl) urea]
- EC50 (human μ-opioid receptor): > 100000 nM
- Emax (human μ-opioid receptor): 7.1 ± 0.77%
- Emax [2, 7]: 1.96 ± 0.72%
- EC50 [2, 8]: > 100000 nM

Structure (SMILES): CN(C)[C@H](CNC(=O)NCc1ccco1)Cc1cccc2ccccc12 [6j, (S)-1-(2-(dimethylamino)-3-(naphthalen-1-yl)propyl)-3-(furan-2-ylmethyl) urea]
- µOR agonist efficacy in Gi/o-protein signaling assay (in words) (human μ-opioid receptor): significant µOR agonist efficacy
- EC50 (human μ-opioid receptor): 97.8 nM
- Emax (human μ-opioid receptor): 27.2 ± 1.71%
- Emax [2, 7]: 1.63 ± 0.32%
- EC50 [2, 8]: > 100000 nM

Structure (SMILES): C[C@@H](Cc1ccsc1)NC(=O)NC[C@H](Cc1ccc(O)cc1)N(C)C [PZM21, reference compound]
- respiratory depression: partial pressure of oxygen in blood vs vehicle (mice [5]): neither the 6a group nor the PZM21 group demonstrated any reduction in respiratory measures
- pain inhibition rate (%MPE), hot-water tail-withdrawal test (mice [1]): 69.23%
- physical dependence: jumping after naloxone-precipitated withdrawal vs vehicle (mice [6]): neither 6a nor PZM21 elicited a significant increase in withdrawal behaviors
- antinociceptive efficacy (%MPE), formalin-induced paw licking, second phase (mice [4]): 72.72%
- µOR agonist efficacy in Gi/o-protein signaling assay (in words) (human μ-opioid receptor): significant µOR agonist efficacy
- Emax (human μ-opioid receptor): 89.8 ± 2.93%
- Emax [2, 7]: 3.09 ± 0.42%

Structure (SMILES): Cc1ccccc1CCNC(=O)NC[C@H](Cc1cccc2ccccc12)N(C)C [6f, (S)-1-(2-(dimethylamino)-3-(naphthalen-1-yl)propyl)-3-(2-methylphenethyl) urea]
- analgesia rate (%MPE), acetic acid-induced writhing (mice [3]): exceeding 97%
- antinociceptive efficacy (%MPE), formalin-induced paw licking, second phase (mice [4]): 59.32%
- µOR agonist efficacy in Gi/o-protein signaling assay (in words) (human μ-opioid receptor): significant µOR agonist efficacy
- EC50 (human μ-opioid receptor): 107 nM
- Emax (human μ-opioid receptor): 84.8 ± 1.86%
- Emax [2, 7]: 5.45 ± 1.75%
- EC50 [2, 8]: > 100000 nM
